According to BindingDB's records for PubMed 36332550 (Peking Union Medical College, 2022):
pIC50: −log10 of the molar value.

Assays:
Zinc finger protein GLI1 [1] = target: T1, Zinc finger protein GLI1 (Homo sapiens, UniProt P08151); experiment: Inhibition of GLI1 (unknown origin) transcriptional activity
T1 sequence (P08151 whole entry): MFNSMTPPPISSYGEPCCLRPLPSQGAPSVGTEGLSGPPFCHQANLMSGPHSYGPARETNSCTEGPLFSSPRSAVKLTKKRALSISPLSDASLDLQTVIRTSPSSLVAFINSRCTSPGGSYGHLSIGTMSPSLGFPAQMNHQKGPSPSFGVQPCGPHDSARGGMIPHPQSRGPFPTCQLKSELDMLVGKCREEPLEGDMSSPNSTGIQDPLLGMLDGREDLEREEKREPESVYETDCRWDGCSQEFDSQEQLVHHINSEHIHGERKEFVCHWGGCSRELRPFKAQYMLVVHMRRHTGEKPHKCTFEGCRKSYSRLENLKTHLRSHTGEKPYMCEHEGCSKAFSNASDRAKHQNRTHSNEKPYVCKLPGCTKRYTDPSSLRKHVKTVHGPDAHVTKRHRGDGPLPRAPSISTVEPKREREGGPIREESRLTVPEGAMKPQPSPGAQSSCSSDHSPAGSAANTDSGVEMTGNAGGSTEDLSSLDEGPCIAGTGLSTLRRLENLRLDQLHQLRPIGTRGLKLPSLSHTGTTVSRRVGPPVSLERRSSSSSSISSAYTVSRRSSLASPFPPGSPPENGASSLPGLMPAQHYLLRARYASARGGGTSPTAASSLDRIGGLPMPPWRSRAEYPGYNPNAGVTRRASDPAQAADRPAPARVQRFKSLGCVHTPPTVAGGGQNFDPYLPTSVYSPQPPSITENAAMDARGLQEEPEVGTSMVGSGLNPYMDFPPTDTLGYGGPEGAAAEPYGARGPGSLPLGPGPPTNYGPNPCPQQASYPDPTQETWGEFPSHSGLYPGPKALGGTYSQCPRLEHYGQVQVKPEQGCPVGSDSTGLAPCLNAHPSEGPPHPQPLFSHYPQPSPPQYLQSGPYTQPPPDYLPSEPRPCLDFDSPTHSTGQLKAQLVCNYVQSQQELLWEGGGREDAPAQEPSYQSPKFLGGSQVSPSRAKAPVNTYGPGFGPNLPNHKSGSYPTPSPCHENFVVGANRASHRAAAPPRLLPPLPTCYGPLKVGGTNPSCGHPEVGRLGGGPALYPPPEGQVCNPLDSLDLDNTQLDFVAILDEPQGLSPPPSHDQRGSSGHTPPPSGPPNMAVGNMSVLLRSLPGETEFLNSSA

Zinc finger protein GLI1 [2] = target: T1, Zinc finger protein GLI1; experiment: Inhibition of GLI1-mediated transcriptional activity in human HaCaT cells coexpressing luciferase

## C[C@@]12C[C@H]3OC(=O)[C@@H]1CO[C@]14O[C@@]5([C@H]2C1=O)[C@@]3(C)OC(=O)[C@@]5(O)CC[C@H]1[C@H]4C[C@H]2O[C@]23CC=CC(=O)[C@]13C
Zinc finger protein GLI1 [1]
  pIC50: 6.15

## C[C@]12C(=O)CC=CC1=CC[C@@H]1[C@@H]2CC[C@]2(O)C(=O)O[C@@]3(C)[C@H]4C[C@]5(C)[C@@H](CO[C@@]16O[C@@]32[C@H]5C6=O)C(=O)O4
Zinc finger protein GLI1 [1]
  pIC50: 5.38

## O[C@H]1[C@H]2c3cc4c(cc3CN3CCC(=C[C@@H]1O)[C@H]23)OCO4 [9,10-(methylenedioxy)-3,12-didehydrogalanthan-1alpha,2beta-diol]
Zinc finger protein GLI1 [2]
  pIC50: 4.72

## CO[C@H]1C=C[C@@]23c4cc5c(cc4CN(C[C@@H]2O)[C@H]3C1)OCO5 [CHEBI:3914]
Zinc finger protein GLI1 [2]
  pIC50: 5.33

## C[C@]12C(=O)C=CCC1=CC[C@@H]1[C@@H]2CC[C@]2(O)C(=O)O[C@@]3(C)[C@H]4C[C@]5(C)[C@@H](CO[C@@]16O[C@@]32[C@H]5C6=O)C(=O)O4 [NSC-287088]
Zinc finger protein GLI1 [1]
  pIC50: 6.22
